Patent publication US7598234B2, “Steroid derived antibiotics” (Brigham Young University, priority 1998, dated 2009)
Converted amounts (≈) assume the structure as drawn.

Key:
[1] = tested on: E. coli (ATCC 10798); test: MIC and MBC measurement with E. coli (ATCC 10798); type: cell-based, Escherichia coli
Excerpt: (§1) General: Microorganisms. Reference strains were purchased from the American Type Culture Collection (Rockville, Md.) or Bactrol disks from Difeo Laboratories (Detroit, Mich.). The following specific ATCC strains were used: 10798 Escherichia coli, 25922 Escherichia coli, 13883 Klebsiella pneumoniae, 27853 Pseudomonas aeruginosa, 14028 Salmonella typhimurium, 29212 Enterococcus faecalis, 25923 Staphylococcus aureus, 19615 Streptococcus pyogenes, and 90028 Candida albicans. Bacterial strains were maintained on Mueller-Hinton agar plates, and Candida albicans was maintained on Sabouraud Dextrose agar plates.
(§2) Tryptic soy broth (TSB) was made by dissolving 27.5 grams of tryptic soy broth without dextrose (DIFCO Laboratories) in 1 liter of deionized water and sterilizing at 121° C. for 15 minutes. Solid agar (TSA) plates were made by dissolving 6.4 grams of tryptic soy broth and 12 grams of agar (purified grade, Fischer Scientific) in 800 mL of deionized water and sterilizing at 121° C. for 20 minutes. Aliquots (20 mL) of the homogeneous solution were then poured in sterile plastic petri dishes (100×15 mm, Fisher Scientific). Solutions of compounds were made by dissolving the HCl salt of the respective compound into an appropriate amount of deionized and sterilized water followed by microfiltration.
(§3) Aliquots of 1 mL of the suspension were added to test tubes containing 1 mL TSB and incrementally varied concentrations of cholic acid derivatives and/or erythromycin or novobiocin. In the sensitization experiments, erythromycin or novobiocin were added 15 minutes later than the cholic acid derivatives. The samples were subjected to stationary incubation at 37° C. for 24 hours. Sample turbidity was determined by measuring absorption at 760 nm (HP 8453 UV-Visible Chemstation, Hewlett Packard). Additionally, an alliquot from each of the samples showing no measurable turbidity was subcultured on TSA plates (alliquots were diluted to provide fewer than 300 CFU). Colonies that grew on the subculture after overnight incubation were counted and the number of CFU/mL in the samples were calculated. The calculated values were compared to the number of CFU/mL in the original inoculum.

[2] = tested on: E. coli (ATCC 10798); test: Sensitization to erythromycin (concentration lowering the MIC of erythromycin), E. coli (ATCC 10798); type: cell-based, Escherichia coli; conditions: for MIC: concentration required to lower the MIC of erythromycin from 70 μg/mL to 1 μg/mL / MBC (with erythromycin): Table 2, E. coli (ATCC 10798); for MBC (with erythromycin): erythromycin sensitization; for (a) Concentration required to lower the MIC of erythromycin from 70 to 1 μg/mL / (b) MBC with 1 μg/mL erythromycin / FIC values with erythromycin: Table 9, Escherichia coli (ATCC 10798)
Protocol: (§4) Alternatively, “fractional inhibitory concentration (FIC)” is also useful for determination of synergy between the compounds of the invention, or the compounds in combination with known antibiotics. FICs can be performed by checkerboard titrations of compounds in one dimension of a microtiter plate, and of antibiotics in the other dimension, for example. The FIC is calculated by looking at the impact of one antibiotic on the MIC of the other and vice versa. […] Preferably, an FIC of less than 0.5 is obtained for synergism. As used herein, FIC can be determined as follows:
as §3
(§5) Ability to permeabilize outer membrane: Compounds 11, 106, and 108-114 (FIG. 1) were tested for antibiotic activity. They were also tested for the ability to permeabilize the outer membrane of Gram-negative bacteria, causing sensitization to hydrophobic antibiotics that cannot cross the outer membrane. The permeabilization of the outer membrane was measured using erythromycin and novobiocin.
(§6) The MICs of erythromycin and novobiocin against E. coli (ATCC 10798) at 70 and >500 μg/mL were measured.

[3] = tested on: Pseudomonas aeruginosa (ATCC 27853); test: MIC and MBC measurement with Pseudomonas aeruginosa (ATCC 27853); type: cell-based; conditions: Table 6; P. aureginosa (ATCC 27853)
Excerpt: as §1, §2, §3

[4] = tested on: Pseudomonas aeruginosa (ATCC 27853); test: Sensitization to erythromycin, Pseudomonas aeruginosa (ATCC 27853); type: cell-based; conditions: Table 7; P. aureginosa (ATCC 27853)
Protocol: as §4
as §3, with “inoculum. […]” for “inoculum.”
To measure permeabilization, the FIC values for compounds 1, 2, 5, 106, 10, 112, 133, and 134 with erythromycin, novobiocin, and rifampicin were determined. Concentrations of 0.5, 1.0 or 3.0 μg/mL of these antibiotics were used, and the concentrations of the cholic acid derivatives required to inhibit bacterial growth of Gram-negative strains were determined.

[5] = tested on: E. coli (ATCC 10798); test: Sensitization to novobiocin (concentration lowering the MIC of novobiocin), E. coli (ATCC 10798); type: cell-based, Escherichia coli; conditions: for (d) Concentration required to lower the MIC of novobiocin from >500 to 1 μg/mL / FIC values with novobiocin: Table 9, Escherichia coli (ATCC 10798)
Protocol: as §4, §3, §5, §6

[6] = Table 9, Escherichia coli (ATCC 10798)

SMILES	MIC ([1]; Table 1, E. coli (ATCC 10798)) [µg/mL]	MIC: concentration required to lower the MIC of erythromycin from 70 μg/mL to 1 μg/mL [2] [µg/mL]	MIC [3] [µg/mL]	MIC: concentration required to lower the MIC of erythromycin from 240 μg/mL to 5 μg/mL [4] [µg/mL]	MBC ([1]; Table 1, E. coli (ATCC 10798)) [µg/mL]	MBC (with erythromycin) [2] [µg/mL]	MBC [1, 6] [µg/mL]	MIC [1, 6] [µg/mL]	(a) Concentration required to lower the MIC of erythromycin from 70 to 1 μg/mL [2] [µg/mL]	(b) MBC with 1 μg/mL erythromycin [2] [µg/mL]	FIC values with erythromycin [2]	MIC: concentration required to lower the MIC of novobiocin from >500 μg/mL to 1 μg/mL ([5]; Table 3, E. coli (ATCC 10798)) [µg/mL]	MBC (with novobiocin) ([5]; Table 3, E. coli (ATCC 10798), novobiocin sensitization) [µg/mL]	(d) Concentration required to lower the MIC of novobiocin from >500 to 1 μg/mL [5] [µg/mL]	FIC values with novobiocin [5]
C[C@H](CCCN(C)Cc1ccccc1)[C@H]1CC[C@H]2[C@@H]3[C@H](OCCCCN)C[C@@H]4C[C@H](OCCCCN)CC[C@]4(C)[C@H]3C[C@H](OCCCCN)[C@]12C [Compound 3]	6 (≈ 8.44 µM)	1.5	16 (≈ 22.5 µM)	6	–	–	–	–	–	–	–	–	–	–	–
C[C@H](CCCN(C)Cc1ccccc1)[C@H]1CC[C@H]2[C@@H]3[C@H](OCCN)C[C@@H]4C[C@@H](OCCN)CC[C@]4(C)[C@H]3C[C@H](OCCN)[C@]12C [Compound 8]	46 (≈ 73.4 µM)	10	50 (≈ 79.7 µM)	40	–	–	–	–	–	–	–	–	–	–	–
CCCCCCCCOCCC[C@@H](C)[C@H]1CC[C@H]2[C@@H]3[C@H](OCCCN)C[C@@H]4C[C@H](OCCCN)CC[C@]4(C)[C@H]3C[C@H](OCCCN)[C@]12C [Compound 9]	3 (≈ 4.42 µM)	3	8 (≈ 11.8 µM)	5	10 (≈ 14.7 µM)	3	–	–	–	–	–	–	–	–	–
CC(O)[C@H]1CC[C@H]2[C@@H]3[C@H](OCCCN)C[C@@H]4C[C@H](OCCCN)CC[C@]4(C)[C@H]3C[C@H](OCCCN)[C@]12C (stereo partly shown) [Compound 11]	140 (≈ 267 µM)	40	–	–	>160	>160	>160	140 (≈ 267 µM)	20	180	0.16	40	140	40	0.29
C[C@H](CCCOCCC[C@@H](C)[C@H]1CC[C@H]2[C@@H]3[C@H](OCCCN)C[C@@H]4C[C@H](OCCCN)CC[C@]4(C)[C@H]3C[C@H](OCCCN)[C@]12C)[C@H]1CC[C@H]2[C@@H]3[C@H](OCCCN)C[C@@H]4C[C@H](OCCCN)CC[C@]4(C)[C@H]3C[C@H](OCCCN)[C@]12C [Compound 12]	4 (≈ 3.59 µM)	1.5	–	–	4 (≈ 3.59 µM)	2.5	–	–	–	–	–	2.5	–	–	–
C[C@H](CO)[C@H]1CC[C@H]2[C@@H]3[C@H](OCCCN)C[C@@H]4C[C@H](OCCCN)CC[C@]4(C)[C@H]3C[C@H](OCCCN)[C@]12C [Compound 108]	–	–	–	–	–	–	–	–	–	–	0.071	–	–	–	0.17
C[C@H](CCO)[C@H]1CC[C@H]2[C@@H]3[C@H](OCCCN)C[C@@H]4C[C@H](OCCCN)CC[C@]4(C)[C@H]3C[C@H](OCCCN)[C@]12C [Compound 109]	–	–	–	–	–	–	–	–	–	–	0.071	–	–	–	0.22
C[C@H](CCCO)[C@H]1CC[C@H]2[C@@H]3[C@H](OCCCN)C[C@@H]4C[C@H](OCCCN)CC[C@]4(C)[C@H]3C[C@H](OCCCN)[C@]12C [Compound 110]	–	–	–	–	–	–	60 (≈ 106 µM)	36 (≈ 63.6 µM)	2.0	50	0.070	–	–	4.0	0.11
